From patent US9078851B2, “Composition for preventing or treating a spinal cord injury” (UNIVERSITY-INDUSTRY COOPERATION GROUP OF KYUNG HEE, priority 2009, dated 2015) come the findings set out here.

Test [1] concerns TNF-α and IL-10 in peripheral blood. Put plainly: ELISA of cytokines in peripheral blood in spinal cord injury model. Format: in vivo, rat. Conditions: 5 nmol/kg tail vein; serum at 1 hour, 6 hours, 1 day, 3 days, 5 days; vs control. The protocol:
(§1) For the present experiment, male white mice (Sprague-Dawley 240-250 g, 7 weeks, 10 mice) were under general anesthetics by an intraperitoneal injection of Ketamin (80 mg/kg, Yuhan Corporation) and Rompun (7.4 mg/kg, Bayer Korea Corporation). Laminectomy was performed at spine T9-10 level to expose a spinal cord keeping intact dura. And then, rat was put on Spinal cord dropping device (NYU); spine processes at T8 and T11 sites were fixed by using a clamp, respectively; then, a rod (diameter 2 mm, weight 10 g) was dropped from 25 mm height vertical to dorsal part of spinal cord followed by suturing injury site muscle and skin. The rat of Sham-operated control group was performed only laminectomy at same area without damaging spinal cord injury (marked by ‘sham” in figures; hereinafter, the same as above). […]
At immediately, 1 d, 2 ds, in order to investigate an effect of Substance P in cytokine in a peripheral blood, Substance P (5 nmol/kg in saline) or saline (the same volume without Substance P) was injected through tail vein, respectively using the same method as (1) of Example 1. […] Finally, The levels of TNF-α and IL-10 were measured by using ELISA kit (R&D Systems).

The subject of test [2] is IL-10 expression in nerve cell. Put plainly: Immunofluorescence staining of IL-10 in nerve cells and microglia/macrophages after spinal cord injury. Format: in vivo, rat. The note with it: tail vein injection; one day after spinal cord injury. As for the experimental part:
(§2) For the present experiment, male white mice (Sprague-Dawley 240-250 g, 7 weeks, 10 mice) were under general anesthetics by an intraperitoneal injection of Ketamin (80 mg/kg, Yuhan Corporation) and Rompun (7.4 mg/kg, Bayer Korea Corporation). Laminectomy was performed at spine T9-10 level to expose a spinal cord keeping intact dura. And then, rat was put on Spinal cord dropping device (NYU); spine processes at T8 and T11 sites were fixed by using a clamp, respectively; then, a rod (diameter 2 mm, weight 10 g) was dropped from 25 mm height vertical to dorsal part of spinal cord followed by suturing injury site muscle and skin. The rat of Sham-operated control group was performed only laminectomy at same area without damaging spinal cord injury (marked by ‘sham” in figures; hereinafter, the same as above).
Substance P (marked by ‘SP’ in figures; hereinafter, the same as above) dissolved in saline of 5 nmol/kg concentration was injected through tail vein at immediately, 24 hours, and 48 hours after a spinal cord injury for experimental groups. At sham control group, same volume of saline (marked by ‘vehicle’ in figures; hereinafter, the same as above) without Substance P was injected at same time points. Operation were performed on an electric heating pad of 37° C., and then rat were transferred to cage after awake from the anesthetic. • (2) Preparation of Tissue […]

For test [3], the system named is caspase-3. Put plainly: Western blot of cleaved caspase-3 in spinal cord tissue. The format is in vivo, rat. Conditions: tail vein injection, one day and five days after injury. The protocol:
as §1
(2) Substance P or saline (the same volume without Substance P) was injected to a tail vein of mice, respectively at immediately, 1 d, 2 ds after a spinal cord injury, using the same method as (1) of Example 1. […] The amounts of proteins in supernatant were determined by using BCA assay (Pierce). […] At this time, β-Tubulin was used as an inner comparing group, and each result were determined by performing four independent experiments.

For test [4], the system named is cytokines at spinal cord injury site. Put plainly: Rat cytokine antibody array analysis of spinal cord tissue. The format is in vivo. The note with it: tail vein injection. As for the experimental part:
as §2
Substance P (marked by ‘SP’ in figures; hereinafter, the same as above) dissolved in saline of 5 nmol/kg concentration was injected through tail vein at immediately, 24 hours, and 48 hours after a spinal cord injury for experimental groups. At sham control group, same volume of saline (marked by ‘vehicle’ in figures; hereinafter, the same as above) without Substance P was injected at same time points. Operation were performed on an electric heating pad of 37° C., and then rat were transferred to cage after awake from the anesthetic. • (2) Preparation of Tissue
A rat cytokine antibody array analysis was performed in order to investigate an effect of Substance P in expressing cytokine.
At immediately, 1 d, and 2d, Substance P or saline (the same volume without Substance P) was injected through tail vein using the same method as (1) of Example 1. After operating, the experimental group (4 rats/group) and the control (4 rats/group) were sacrificed at 1 d and 5d, respectively. The spinal cord tissue (1 cm) obtained from an animal was homogenized with a dissolution buffer solution (10% glycerol, 20 mM Tris [pH 8.0], 137 mM NaCl, 1% Nonidet P-40, 0.5 mM EDTA, 10 mM Na2P2O7, 10 mM NaF, 1 μg/ml aprotinin, 10 μg/ml leupeptin, 1 mM vanadate and 1 mM PMSF). A protein amount of supernatant was determined by BCA assay (Pierce). Subsequently, a cytokine assay was performed according to instructions of Ray Biotech Morcross GA protocol. A membrane was blocked with a blocking buffer solution, then 150 μg of a protein sample was added, and reacted for 2 hours at a room temperature. The membrane was washed and 1 ml of primary antibody conjugated with a biotin was added, and placed at 4° C. overnight. Next day, the membrane was washed, and reacted with 2 ml of streptoavidin conjugated with horseradish peroxidase for 30 minutes at a room temperature. The membrane was developed using enhanced chemiluminescence-type solution, and the film was exposed to Radiography. Using USA NIH Image and Image J software (Hong et al., 2009), density quantification of array was performed.

Setting [5] is: five days after spinal cord injury, vs control.
The mark [6] stands for this setting: one day after spinal cord injury.

In the case of Substance P, in test [1], the “level of IL-10 in peripheral blood” value is recorded as “no meaningful differences” and the “level of TNF-α in peripheral blood” value is reported as “no meaningful differences”. Further, the “IL-10 expression in cells” value in test [2] is recorded as “specifically expressed at a nerve cell”. In test [3], the “activation of caspase-3” value is on record as “significantly decreased”. The “amount of IL-10” value in test [4] (5 d after spinal cord injury) is on record as “higher than the control”. In test [4] (setting [5]), the “expression of IFN-γ” value is “slightly decreased” and the “expression of IL-1α” value is “slightly decreased”. Further, in test [4] (setting [6]), the “amount of IL-6” value was “meaningfully increased”, the “increase of amount of IL-4” value is reported as “two times” and the “increase of amount of IL-10” value is on record as “ten times”.
